In series [1] the test system is Kelly cells. Briefly: Cytotoxicity test, Cell Counting Kit-8, 72 hours. The class given is cell-based. The conditions noted are these: ALK F1174L neuroblastoma. The procedure: (§1) The experiment was carried out in the same manner as that in the case of using KR12. The cells used in the experiment were Kelly cells, SK-N-SH cells, IMR-32 cells, SK-N-AS cells, and MDA-MB-231 cells. These cells were cultured in a DMEM, 10% FBS and 1% Pen/St medium, and in an RPMI1640, 10% FBS and 1% Pen/St medium, respectively. The cells of each type were seeded in each well of a 96-well plate at a cell density of 1000 cells/50 μl/well, and were then cultured under conditions of 37° C., 5% CO2, and saturated humidity for 24 hours. Thereafter, a reagent was diluted with a medium (final concentration: 1, 3, 10, 30, and 100 nM), and the diluted reagent was then added to the cultured cells in an amount of 50 μl/well, and the obtained mixture was then blended. The thus obtained mixture was cultured again under conditions of 37° C., 5% CO2, and saturated humidity for 72 hours. Thereafter, Cell Counting Kit-8 (DOJINDO) was added to the obtained culture in an amount of 10 μl/well, and the thus obtained mixture was blended and was then cultured under conditions of 37° C., 5% CO2, and saturated humidity for 2 hours. The absorbance was measured using Microplate Reader MTP-310 Lab (COLONA ELECTORIC), and the IC50 value was then calculated.
In general terms: Tetrazolium dyes change colour on reduction, which living cells bring about.

Series [2] concerns SK-N-AS cells. Briefly: Cytotoxicity test, Cell Counting Kit-8, 72 hours. The class given is cell-based. The conditions noted are these: Homo sapiens, wild-type ALK neuroblastoma. How it is done:
as §1

Series [3] relates to SK-N-SH cells. Briefly: Cytotoxicity test, Cell Counting Kit-8, 72 hours. The class given is cell-based. The conditions noted are these: Homo sapiens, ALK F1174L neuroblastoma. The procedure:
as §1

Series [4] relates to IMR-32 cells. Put plainly: Cytotoxicity test, Cell Counting Kit-8, 72 hours. Format: cell-based. As to conditions: Homo sapiens. How it is done: as §1
as §1, with “were” for “were Kelly cells, SK-N-SH cells,”, “cells” for “cells, SK-N-AS cells,”, “TGW” for “MDA-MB-231”

For series [5], the system named is MDA-MB-231 cells. Put plainly: Cytotoxicity test, Cell Counting Kit-8, 72 hours. Format: cell-based. The conditions noted are these: Homo sapiens, MDA-MB-231, breast cancer. How it is done: as §1, with “Thereafter, Cell Counting Kit-8 (DOJINDO) was added to the obtained culture in an amount of 10 μl/well, and the thus obtained mixture was blended and was then cultured under conditions of 37° C., 5% CO2, and saturated humidity for 2 hours.” left out
The experiment was carried out in the same manner as that in the case of using KR12. […] The absorbance was measured using Microplate Reader MTP-310 Lab (COLONA ELECTORIC), and the IC50 value was then calculated.

Series [6] has as its system LS180 cells. Put plainly: Cytotoxicity test, WST-8 (cell counting kit-8), 48 hours. The class given is cell-based, human. The conditions noted are these: LS180 cells. How it is done:
Using LS180 colon cell line, the cells were seeded in each well of a 96-well microplate, resulting in a cell density of 3000 to 5000 cells/well, and they were then cultured overnight. On the following day, KR12 recognizing a codon 12 mutation, WT recognizing wild-type KRAS, and C12-Dp having the same structure as that of KR12, to which an alkylating agent had not been added, were each added to the cultured cells in concentrations of 1 nM, 10 nM, 30 nM, 100 nM, 300 nM, and 1 μM, and were then treated for 48 hours. Thereafter, a WST-8 reagent was added to each well, using cell counting kit-8 (DOJINDO), and the obtained mixture was then reacted for 2 hours. After that, the number of cells was counted at a wavelength of 450 nm according to a colorimetric analysis method using a microplate reader. The method of counting the number of cells comprises: 1) obtaining the mean value of the medium alone, 2) subtracting the mean value of the medium from each well, 3) obtaining the mean value of DMSO, 4) dividing the medium-subtracted value by the mean value of DMSO and then multiplying by 100, 5) obtaining the mean value of each treatment group and a standard deviation, and then preparing a graph. The calculation formula of IC50 is the following: IC50=10 (LOG (A/B)×(50−C)/(D−C)+LOG (B)), wherein A: a higher concentration of two concentrations sandwiching 50%, B: a lower concentration of two concentrations sandwiching 50%, C: inhibitory percentage at B, and D: inhibitory percentage at A.
Using colon cancer and pancreatic cancer cell lines, the cells were seeded in each well of a 96-well microplate, resulting in a cell density of 3000 to 5000 cells/well, and they were then cultured overnight. On the following day, the cells of each type were treated with KR12 recognizing a codon 12 mutation in concentrations of 1 nM, 10 nM, 30 nM, 100 nM, 300 nM, and 1 μM for 48 hours. Thereafter, a WST-8 reagent was added to each well, using cell counting kit-8, and the obtained mixture was then reacted for 2 hours. After that, the number of cells was counted at a wavelength of 450 nm according to a colorimetric analysis method using a microplate reader. The method of counting the number of cells comprises: 1) obtaining the mean value of the medium alone, 2) subtracting the mean value of the medium from each well, 3) obtaining the mean value of DMSO, 4) dividing the medium-subtracted value by the mean value of DMSO and then multiplying by 100, 5) obtaining the mean value of each treatment group and a standard deviation, and then preparing a graph. […]

Series [7] relates to TGW cells. Put plainly: Cytotoxicity test, Cell Counting Kit-8, 72 hours. The class given is cell-based. As to conditions: TGW cells, 1 to 100 nM, FIG. 33. The procedure:
as §1, with “were” for “were Kelly cells, SK-N-SH cells,”, “cells” for “cells, SK-N-AS cells,”, “TGW” for “MDA-MB-231”

Series [8] deals with MCF7 cells. Put plainly: Cytotoxicity test, Cell Counting Kit-8, 72 hours. Format: cell-based. As to conditions: Homo sapiens, MCF7, breast cancer, PIK3CA E545K, FIG. 27A. The procedure:
as §1, with “MCF7 cells” for “Kelly cells, SK-N-SH cells, IMR-32 cells, SK-N-AS cells,”

A short description of series [9]: Body weight and health condition of treated nude mice. Format: in vivo. As to conditions: nude mice with SW480 cells; FIG. 15; seco CBI 8.4 mmol. How it is done: The below-mentioned 3 types of PBS solutions containing each type of cells were subcutaneously transplanted into the femurs of nude mice (i.e., HT29 into 7 mice, LS180 into 7 mice, and SW480 into 6 mice), and thereafter, at a time point in which a tumor adhered to the living body of each mouse and the tumor volume became approximately 100 mm^3, a drug was prepared with a composition of 3.4 mmol KR12 (1.36 mM KR12 dissolved in 2.5 μL of DMSO and 197.5 μL of PBS), or of a DMSO/PBS control (2.5 μL of DMSO and 197.5 μL of PBS). The prepared drug was subjected to sonication for 10 minutes, and 200 μL of the drug was administered to each mouse via the caudal vein thereof. The body weight and the tumor size were measured once three days, and the size of the tumor was measured by the method of 0.52×L×W×D(1/6×π×L×W×D).
Using, as controls, PIP-indole-seco-CBI (KR13) not recognizing a codon 12 mutation and 8.4 mmol seco CBI (3.36 mM CBI dissolved in 2.5 μL of DMSO and 197.5 μL of PBS), instead of the DMSO/PBS control, an experiment was carried out by the same method as that of the above section 11.

Consider `CC(=O)Nc1cc(C(=O)Nc2cc(C(=O)Nc3cc(C(=O)Nc4cc(C(=O)NCCC(=O)Nc5cc(C(=O)Nc6cc(C(=O)Nc7cc(C(=O)NCCCC(=O)Nc8cn(C)c(C(=O)Nc9cn(C)c(C(=O)NCCC(=O)Nc%10cn(C)c(C(=O)Nc%11cn(C)c(C(=O)Nc%12cc(C(=O)Nc%13ccc%14[nH]c(C(=O)N%15CC(CCl)c%16c%15cc(O)c%15ccccc%16%15)cc%14c%13)n(C)c%12)n%11)n%10)n9)n8)n(C)c7)n(C)c6)n(C)c5)n(C)c4)n(C)c3)n(C)c2)n(C)c1` (stereo not shown) [ALK-FL-1], for which the 50% inhibitory concentration (IC50) (as a rule, the concentration at which inhibition is half-maximal) in series [1] was 0.09 nM; in series [2] it was 2.6 nM; in series [3] it was 0.13 nM; in [4] (IMR-32, IMR32, wild-type ALK neuroblastoma), 0.46 nM; in [5] (wild-type ALK gene), 7.5 nM.
On to `CC(=O)Nc1cn(C)c(C(=O)Nc2cc(C(=O)NCCC(=O)Nc3cn(C)c(C(=O)Nc4cn(C)c(C(=O)Nc5cc(C(=O)Nc6cn(C)c(C(=O)NCCCC(=O)Nc7cc(C(=O)Nc8cn(C)c(C(=O)NCCC(=O)Nc9cc(C(=O)Nc%10cc(C(=O)Nc%11ccc%12[nH]c(C(=O)NCCC(=O)N(C)C)cc%12c%11)n(C)c%10)n(C)c9)n8)n(C)c7)n6)n(C)c5)n4)n3)n(C)c2)n1` [C12-Dp], for which, in series [6] (1 nM to 1 μM, FIG. 8), the “suppression of the cell growth” value is reported as “suppression of the cell growth was not observed”.
In the case of `CC(=O)Nc1cc(C(=O)Nc2cn(C)c(C(=O)Nc3cc(C(=O)NCCC(=O)Nc4cn(C)c(C(=O)Nc5cc(C(=O)NCCCC(=O)Nc6cc(C(=O)Nc7cc(C(=O)NCCC(=O)Nc8cc(C(=O)Nc9ccc%10[nH]c(C(=O)N%11CC(CCl)c%12c%11cc(O)c%11ccccc%12%11)cc%10c9)n(C)c8)n(C)c7)n(C)c6)n(C)c5)n4)n(C)c3)n2)n(C)c1` (stereo not shown) [MYCNA2], the half-inhibitory concentration (IC50) in series [4] (IMR-32 cells, 1 to 100 nM, FIG. 33) was 12.1 nM; in series [7] it was 11.2 nM.
On to `CC(=O)Nc1cc(C(=O)Nc2cc(C(=O)Nc3cn(C)c(C(=O)Nc4cc(C(=O)NCCC(=O)Nc5cn(C)c(C(=O)Nc6cn(C)c(C(=O)NCCCC(=O)Nc7cc(C(=O)Nc8cc(C(=O)NCCC(=O)Nc9cn(C)c(C(=O)Nc%10cc(C(=O)Nc%11ccc%12[nH]c(C(=O)N%13CC(CCl)c%14c%13cc(O)c%13ccccc%14%13)cc%12c%11)n(C)c%10)n9)n(C)c8)n(C)c7)n6)n5)n(C)c4)n3)n(C)c2)n(C)c1` (stereo not shown) [P3A-E5K-1], for which the IC50 is greater than 100 nM in [5] (wild-type PIK3CA gene, FIG. 27B) and 53.8 nM in series [8].
In the case of `CC(=O)Nc1cc(C(=O)Nc2cc(C(=O)Nc3cn(C)c(C(=O)NCCC(=O)Nc4cc(C(=O)Nc5cn(C)c(C(=O)Nc6cn(C)c(C(=O)NCCCC(=O)Nc7cc(C(=O)Nc8cc(C(=O)NCCC(=O)Nc9cn(C)c(C(=O)Nc%10cc(C(=O)Nc%11ccc%12[nH]c(C(=O)N%13CC(CCl)c%14c%13cc(O)c%13ccccc%14%13)cc%12c%11)n(C)c%10)n9)n(C)c8)n(C)c7)n6)n5)n(C)c4)n3)n(C)c2)n(C)c1` (stereo not shown) [P3A-E5K-2], in [8], the IC50 is greater than 100 nM.
Turning to `CC(=O)Nc1cn(C)c(C(=O)Nc2cn(C)c(C(=O)NCCC(=O)Nc3cn(C)c(C(=O)Nc4cn(C)c(C(=O)Nc5cc(C(=O)Nc6cn(C)c(C(=O)NCCCC(=O)Nc7cc(C(=O)Nc8cn(C)c(C(=O)NCCC(=O)Nc9cc(C(=O)Nc%10cc(C(=O)Nc%11ccc%12[nH]c(C(=O)N%13CC(CCl)c%14c%13cc(O)c%13ccccc%14%13)cc%12c%11)n(C)c%10)n(C)c9)n8)n(C)c7)n6)n(C)c5)n4)n3)n2)n1` (stereo not shown) [WT], in [6] (Homo sapiens, WST-8, FIG. 8, read-out: IC50), the IC50 turned out to be 193 nM.
As for `Oc1cc2c(c3ccccc13)C(CCl)CN2` (stereo not shown) [seco-CBI, 1-chloromethyl-5-hydroxy-1,2-dihydro-3H-benzo[e]indole], the “tendency of body weight reduction” value in series [9] is “the tendency of body weight reduction, which was observed”.

Source of the values: patent US11185593B2, “Alkylating agent for alkylating target with driver oncogene mutation” (Chiba Prefecture, priority 2013, dated 2021).
